Tested on: E. multilocularis metacestode vesicles
Test: PGI assay (damage marker release) with metacestode vesicles
Type: cell-based, Echinococcus multilocularis
Parameters: key: Active: Compounds were considered active when they reached 20% of PGI release relative to Triton X-100; Not active: Compounds were considered active when they reached 20% of PGI release relative to Triton X-100
Settings: overview screen at 10 µM, five days, 20% cut-off relative to Triton X-100
Protocol: In order to screen disulfiram and dithiocarbamate derivatives as potential new drug candidates, we used an in vitro screening cascade, in which the compounds were first screened against E. multilocularis metacestode vesicles via the phosphoglucose isomerase (PGI) assay, in which metacestode vesicle damage is assessed by the measurement of damage marker (PGI) release (Figure 1, see Section 2.6). […] Subsequently, compounds were assessed in concentration series on E. multilocularis metacestode vesicles via the PGI assay and on GL cell cultures via the CellTiter-Glo assay (see Section 2.9). The testing on mammalian cells as well as metacestode vesicles and GL cell cultures allowed the identification of a potential therapeutic window in vitro.
PGI assays were conducted at the University of Bern as described previously. In short, two-to-three-month-old metacestode vesicles of two to four mm in diameter were purified using 2% sucrose followed by several washing steps in PBS. Purified metacestode vesicles were mixed with two volumes of DMEM without phenol red containing penicillin (100 U/mL) and streptomycin (100 µg/mL). […] Samples were measured on an EnSpire multilabel reader (Perkin Elmer, Waltham, MA, USA). […] Samples were measured on a HIDEX Sense microplate reader (Hidex, Turku, Finland). […]

SMILES: CCN(CC)C(=S)SSC(=S)N(CC)CC [Disulfiram]
- PGI assay (active / not active): Not active
- PGI assay (active / not active) (listed as disulfiram): showed no effect
